Entries after “also recorded” stand apart in the source; their conditions may differ.
Key:
[1] = tested on: SGS patient fibroblasts; experiment: qPCR of TGFβ target genes in TGFβ1-stimulated primary human dermal fibroblasts; type: cell-based; conditions: for Expression level of COL3A1 and FN1 relative to β-actin / Expression level of SKI and SMAD7 relative to β-actin: control and SGS patient fibroblasts, vs vehicle treated
Procedure: Primary human dermal fibroblasts were derived from forearm skin biopsies of two controls and two patients with Shprintzen-Goldberg syndrome from previously described. The fibroblasts were cultured in Dulbecco's modified eagle medium (DMEM) with 10% fetal bovine serum (FBS) in the presence of antibiotics and passaged confluence. According to previously described protocols with slight modifications (2), all cell culture experiments were conducted in serum-starved media for 24 hours prior to drug treatment. Stimulation was performed using 10 ng/ml recombinant human TGFβ1 (R&D system). […] Cells were collected at baseline, 6 hours after TGFβ1 stimulation. RNA was extracted from the cells using Trizol (ThermoFisher) by RNeasy mini kit (QIAGEN), as per the manufacturer's manual.
Total RNA was isolated from mouse aortas or cultured cells by RNeasy mini kit (QIAGEN), as per the manufacturer's manual. Quantitative PCR was performed in triplicate with TaqMan Universal PCR Master Mix using an ABI Prism 7900 HT QPCR machine (all from Applied Biosystems), as per the manufacturer's manual. The following prevalidated TaqMan probes were used to detect specific transcripts: Mm00801666_g1 (Collal), Mm01254476_m1 (Col3A1), Mm01256744_m1 (Fn1), Mm04205640_g1 (Cdkn1a), Mm01192932_g1 (Ctgf), and Mm00435860_m1 (Serpine1), Mm00448744_m1 (Ski), Mm00456917_m1 (Skil), Mm00484742_m1 (Smad7) and Mm00607939_s1 (Actb) (Life Technologies). For human samples, the following probes were used: Hs00943809_m1 (COL3A1), Hs00365052_m1 (FN1), Hs00161707_m1 (SKI), Hs01045418_m1 (SKIL) and Hs01060665_g1 (ACTB). Reactions were run in triplicate, and relative quantification for each transcript was obtained by normalizing against housekeeping control transcript such as β-ACTIN (ACTB) according to the formula 2^−Ct/2^−Ct(ACTB).

[2] = tested on: VSMC/Ski G34D/+ mice; experiment: Aortic root diameter and growth by echocardiography in C646-treated mice; type: in vivo, mouse; conditions: for Final absolute aortic root diameter: C646 5 mg/kg/day IP from 8 weeks of age; for Final absolute aortic root diameter / Final absolute aortic root growth rate: 12 weeks of treatment, +/−SEM; for Final absolute aortic root growth rate: C646 5 mg/kg/day IP
Procedure: (§1) C646 (Selleckchem, #S7152) was reconstituted in 10% DMSO (Sigma) dissolved in PBS, and administered daily by intraperitoneal (IP) injection at dose of 5 mg/kg/day. Treatment was initiated at 8 weeks of age and continued for 12 weeks. 10% DMSO in PBS was administered as a control.
Nair hair removal cream was used to remove fur from the anterior thorax of the mice the day prior to echocardiography. According to previously described with slight modifications (1), all echocardiography were performed on mice that were awake and unsedated with the use of the Vevo 2100 imaging system and 40 MHz transducer (Visualsonics). Mice were imaged at 8 weeks of age as a baseline and every 4 weeks thereafter, until 20 weeks of age. Mice aorta were imaged in the parasternal long-axis view. Three separate measurements of the maximal internal dimension at the sinus of Valsalva during systole were made in separate cardiac cycles and averaged. All imaging and analysis was performed blinded to genotype and treatment arm.

[3] = tested on: VSMC/Ski G34D/+ mice; experiment: Aortic root histology (VVG and Masson-trichrome staining): wall thickness, elastin fiber disruptions; type: in vivo, mouse; conditions: for Final absolute aortic wall thickness / Final number of disruptions in elastin fiber architecture: C646 5 mg/kg/day IP, 12 weeks, aortic root sections, +/−SEM
Procedure: According to a previously described protocol with slight modification (1), mice that were analyzed for aortic histology had latex infused into the left ventricle through descending abdominal aorta. Mice were then fixed for 24 hours in 10% neutral buffered formalin and then switched into 70% ethanol until histological analysis was performed.
as §1
According to previously described protocols with slight modifications (1), latex-infused heart and aorta were removed from body and transected just below the level of the aortic annulus, and just above aortic root, and 2-3 mm transverse sections were mounted in 4% agar prior to paraffin fixation. Five micron aortic sections underwent Verhoeff-van Giesen (VVG) and Masson's Trichrome staining, and were imaged 40× magnification, using a Nikon Eclipse E400 microscope. Aortic wall thickness was measured of four sites of four representative sections for each mouse and the disruptions of elastin fiber architecture were counted in four sections every 25 micron from aortic annulus. All analyses were performed blinded to genotype and treatment arm and the results were averaged.

[4] = tested on: histone 3 lysine 27 acetylation (H3K27ac); experiment: Immunofluorescent detection of H3K27ac in aortic roots; type: in vivo, mouse; conditions: VSMC/Ski G34D/+ mice, C646 5mg/kg/day vs DMSO-treated
Procedure: For aorta frozen section, harvested aorta with heart was fixed in fresh 4% paraformaldehyde in PBS at 4 degree overnight and then placed in cold 30% sucrose in PBS solution and incubated at 4 degree overnight again. Tissue was then embedded in Tissue-Tek O.C.T compound ad snap-frozen in liquid nitrogen and stored at minus 80 degree until processed.
as §1
Immunofluorescence staining was performed as previous described (3). Frozen 10 μm long-axis view sections were obtained with a cryostat and mounted on glass slides. Sections were dried for at room temperature for overnight prior to staining. Sections were permeabilized in staining buffer (PBS containing 0.1% Triton-X 100) for 30 minutes and then incubated with Fc Receptor Block from Innovex for 30 minutes at room temperature, washed briefly in staining buffer, and then incubated again in blocking solution (0.1% Triton-X 100, 1:50 goat serum, 0.3M glycine) for 30 minutes. […]

[5] = tested on: TGFβ target genes; experiment: qPCR of TGFβ target genes in mouse aorta; type: in vivo; conditions: C646 treated vs DMSO treated VSMC/Ski G34D/+ mice
Source text: For quantitative RT-PCR and chromatin immunoprecipitation, mice aortic root and ascending aorta (above aortic root to the origin of right brachiocephalic trunk) harvested separately, snap-frozen in liquid nitrogen and stored at minus 80 degrees Celsius until processed. For RNA extraction, Aortas were homogenized in Trizol (ThermoFisher) by FastPrep-24 (MP Biomedicals, LLC.), as per the manufacturer's manual. After homogenization, RNA was extracted by RNeasy mini kit (QIAGEN), as per the manufacturer's manual. RNA samples were then stored once more at minus 80 degrees until quantitative RT-PCR experiment was performed.
C646 (Selleckchem, #S7152) was reconstituted in 10% DMSO (Sigma) dissolved in PBS, and administered daily by intraperitoneal (IP) injection at dose of 5 mg/kg/day. Treatment was initiated at 8 weeks of age and continued for 12 weeks. […]
Total RNA was isolated from mouse aortas or cultured cells by RNeasy mini kit (QIAGEN), as per the manufacturer's manual. Quantitative PCR was performed in triplicate with TaqMan Universal PCR Master Mix using an ABI Prism 7900 HT QPCR machine (all from Applied Biosystems), as per the manufacturer's manual. […] Reactions were run in triplicate, and relative quantification for each transcript was obtained by normalizing against housekeeping control transcript such as β-ACTIN (ACTB) according to the formula 2^−Ct/2^−Ct(ACTB).

[6] = SD208 10 μM for 1 hour pre-treated before TGFβ1 stimulation (10 ng/ml for 6 hours)
[7] = C646 2004 for 24 hours pre-treated before TGFβ1 stimulation
[8] = C646 2004 for 24 hours pre-treated before TGFβ1 stimulation (10 ng/ml for 6 hours)

Structure (SMILES)	Expression level of COL3A1 and FN1 relative to β-actin [1, 6]	Expression level of SKI and SMAD7 relative to β-actin [1, 6]	Aortic root diameter (in words) ([2]; C646 treated vs DMSO treated VSMC/Ski G34D/+ mice, echocardiogram)	Final absolute aortic root diameter ([2]; Control mice, echocardiogram)	Final absolute aortic root growth rate ([2]; Control mice)	Final absolute aortic root diameter ([2]; VSMC/Ski G34D/+ mice, echocardiogram)	Final absolute aortic root growth rate ([2]; VSMC/Ski G34D/+ mice)	Aneurysm progression ([2]; systemically-administered C646 in Ski VSMC:G34D/+ mice)	Aortic wall architecture: medial thickening, elastic fiber fragmentation, collagen deposition (in words) ([3]; C646 treated vs DMSO treated VSMC/Ski G34D/+ mice, VVG and Masson-trichrome staining)	Final absolute aortic wall thickness ([3]; Control mice)	Final number of disruptions in elastin fiber architecture ([3]; Control mice)	Final absolute aortic wall thickness ([3]; VSMC/Ski G34D/+ mice)	Final number of disruptions in elastin fiber architecture ([3]; VSMC/Ski G34D/+ mice)	H3K27 acetylation in aortic root [4]	Expression levels of TGFβ target genes relative to β-actin in aorta [5]	Difference of COL3A1 and FN1 expression level between C646 treated SGS patient fibroblast and vehicle treated control fibroblasts [1, 7]	Difference of SKI expression level between C646 treated SGS patient fibroblast and vehicle treated control fibroblast [1, 7]	TGFβ target gene expression in SGS patient fibroblasts ([1]; comparable efficiency of a TGFβ type I receptor (Alk5) kinase inhibitor)	Expression level of COL3A1 and FN1 relative to β-actin [1, 8]	Expression level of SKI and SMAD7 relative to β-actin [1, 8]
Fc1ccc(Cl)cc1-c1nc(Nc2ccncc2)c2nccnc2n1 [SD208]	significantly decreased expression level	significantly decreased expression level																		
CC1=NN(c2ccc(C(=O)O)cc2)C(=O)C1=Cc1ccc(-c2cc(C)c(C)cc2[N+](=O)[O-])o1 (stereo in doubt) [C646, 4-[(4Z)-4-[[5-(4,5-dimethyl-2-nitrophenyl)furan-2-yl]methylidene]-3-methyl-5-oxopyrazol-1-yl]benzoic acid]			normalized aortic root diameter; also recorded: rescued aortic root diameter	1.686+/−0.024 mm	0.067+/−0.023 mm/12 weeks	1.848+/−0.045 mm	0.119+/−0.042 mm/12 weeks	abrogates aneurysm progression; also recorded: prevented aneurysm progression	reduced medial thickening and elastic fiber fragmentation and the recovered collagen deposition; also recorded: preserves aortic wall architecture; also recorded: preservation of aortic wall architecture	58.547+/−1.415 μm	1+/−0.577	63.438+/−1.818 μm	6+/−1.155	decreased H3K27 acetylation; also recorded: prevention of excessive Histone 3 Lysine 27 (H3K27) acetylation	decreased expression levels of TGFβ target genes except COL1A1, SKI and SKIL; also recorded: normalizes gene expression in the aorta; also recorded: normalization of the TSR	no significant difference	no significant difference	normalized TGFβ target gene expression	significantly decreased expression level	significantly decreased expression level
